# From ChEMBL document CHEMBL1122227, “Synthesis and antiarrhythmic and parasympatholytic properties of substituted phenols. 1. Heteroarylamine derivatives” (1983)
# Active and inactive are the calls of the source. The calls are words filed in the database; no cut-off is given here.
# Experiments:
# [1] = test system: Canis familiaris; experiment: Active dose for antiarrhythmic activity in Harris dog. (incomplete or no effect to restore sinus rhythm up to 30 mg/kg); low activity; type: functional, organism-based; design: dose 30 mg/kg; conditions: Canis lupus familiaris; Heart
# [2] = biological target: Muscarinic acetylcholine receptor (Rattus norvegicus) (UniProt P08482+P08483+P08485+P08911+P10980); experiment: Percentage inhibition of field stimulated contraction guinea pig ileum (parasympatholytic activity)in presence of test compound (4 mg/L); type: functional, tissue-based; conditions: Cavia porcellus, target entry is the homologue from another species
# [3] = species on record: Canis familiaris; experiment: Active dose for antiarrhythmic activity in Harris dog.; type: functional, Canis lupus familiaris, Heart
# [4] = test system: Canis familiaris; experiment: Active dose for antiarrhythmic activity in Harris dog; inactive to 22 mg/kg; type: functional, organism-based; design: dose 22 mg/kg; conditions: Canis lupus familiaris; Heart
# [5] = test system: Canis familiaris; experiment: Active dose for antiarrhythmic activity in Harris dog; inactive to 30 mg/kg; type: functional, organism-based; design: dose 30 mg/kg; conditions: Canis lupus familiaris; Heart
# [6] = test system: Canis familiaris; experiment: Active dose for antiarrhythmic activity in Harris dog. (incomplete restoration of normal sinus rhythm up to 2 mg/kg when death occurred); low activity; type: functional, organism-based; design: dose 2 mg/kg; conditions: Canis lupus familiaris; Heart
# [7] = test system: Canis familiaris; experiment: Active dose for antiarrhythmic activity in Harris dog.(partial restoration of normal sinus rhythm up to 12 mg/kg when loss of muscle tone occurred); low activity; type: functional, organism-based; design: dose 12 mg/kg; conditions: Canis lupus familiaris
# [8] = test system: Canis familiaris; experiment: Active dose for antiarrhythmic activity in Harris dog.(partial restoration of normal sinus rhythm up to 9 mg/kg when death occurred); low activity; type: functional, organism-based; design: dose 9 mg/kg; conditions: Canis lupus familiaris; Heart
Compound,inhibition [2],Dose [3],further results
COc1cc2c(Nc3cc(CN4CCCC4)c(O)c(CN4CCCC4)c3)ncnc2c(OC)c1OC,14%,–,DOSE [1]: Partially active
Oc1c(CN2CCCC2)cc(Nc2ccc(Cl)nn2)cc1CN1CCCC1,40%,10.5 mg/kg,–
Oc1ccc(Nc2ccc3ccccc3n2)cc1CN1CCCC1,72%,11 mg/kg,–
Oc1c(CN2CCCC2)ccc(Nc2ncnc3ccccc23)c1CN1CCCC1,21%,–,DOSE [4]: inactive
Clc1nnc(Nc2cc(CN3CCCC3)cc(CN3CCCC3)c2)c2ccccc12,93%,3 mg/kg,–
Oc1c(CN2CCCC2)cc(Nc2ncnc3ccccc23)cc1CN1CCCC1 [CHANGROLIN],43%,10.3 mg/kg,–
Oc1ccc(Nc2nncc3ccccc23)cc1,23%,–,DOSE [5]: inactive
CC(=O)Nc1cc(CN2CCCC2)c(O)c(CN2CCCC2)c1,–,–,DOSE [5]: inactive
Oc1c(CN2CCCC2)cc(Nc2nncc3ccccc23)cc1CN1CCCC1,83%,1.5 mg/kg,–
Oc1c(CN2CCCC2)cc(Nc2ccncc2)cc1CN1CCCC1,5%,8.5 mg/kg,–
Oc1c(CN2CCCC2)cc(Nc2nnc(Cl)c3ccccc23)cc1CN1CCCC1,76%,2.5 mg/kg,–
Cc1cc(Nc2cc(CN3CCCC3)c(O)c(CN3CCCC3)c2)c2ccccc2n1,–,11 mg/kg,–

# The next lines start with results.
inhibition [2],Compound,Dose [3],further results
50%,Oc1c(CN2CCCC2)cc(Nc2ccc3ccccc3n2)cc1CN1CCCC1,6 mg/kg,–
14%,CN(C)Cc1cc(Nc2nncc3ccccc23)cc(CN(C)C)c1O,14 mg/kg,–
36%,Oc1c(CN2CCCC2)cc(Nc2ccnc3cc(C(F)(F)F)ccc23)cc1CN1CCCC1,3 mg/kg,–
84%,COc1nnc(Nc2cc(CN3CCCC3)c(O)c(CN3CCCC3)c2)c2ccccc12,–,DOSE [6]: Partially active
13%,Oc1ccc(Nc2ncnc3ccccc23)cc1,–,DOSE [5]: inactive
65%,Oc1ccc(Nc2nnc(Cl)c3ccccc23)cc1CN1CCCC1,17 mg/kg,–
6%,Oc1c(CN2CCCC2)cc(Nc2ncccn2)cc1CN1CCCC1,–,DOSE [7]: Partially active
3%,Nc1cc(CN2CCCC2)c(O)c(CN2CCCC2)c1,–,DOSE [5]: inactive
48%,Oc1ccccc1Nc1ncnc2ccccc12,–,DOSE [5]: inactive
48%,Oc1c(CN2CCCC2)cc(Nc2nccc3ccccc23)cc1CN1CCCC1,1.1 mg/kg,–
78%,Oc1c(CN2CCCC2)cc(CNc2nnc(Cl)c3ccccc23)cc1CN1CCCC1,4.5 mg/kg,–
19%,Oc1c(CN2CCCC2)cc(Nc2ccnc3ccccc23)cc1CN1CCCC1,–,DOSE [8]: Partially active
27%,Oc1c(CN2CCCC2)cc(Nc2ccnc3cc(Cl)ccc23)cc1CN1CCCC1,–,DOSE [7]: Partially active
